What is called pIC50 is −log10 of the IC50, conventionally taken in molar units.

pIC50: −log10 of the molar value.

Metabotropic glutamate receptor 2, sequence (Q14416 whole entry): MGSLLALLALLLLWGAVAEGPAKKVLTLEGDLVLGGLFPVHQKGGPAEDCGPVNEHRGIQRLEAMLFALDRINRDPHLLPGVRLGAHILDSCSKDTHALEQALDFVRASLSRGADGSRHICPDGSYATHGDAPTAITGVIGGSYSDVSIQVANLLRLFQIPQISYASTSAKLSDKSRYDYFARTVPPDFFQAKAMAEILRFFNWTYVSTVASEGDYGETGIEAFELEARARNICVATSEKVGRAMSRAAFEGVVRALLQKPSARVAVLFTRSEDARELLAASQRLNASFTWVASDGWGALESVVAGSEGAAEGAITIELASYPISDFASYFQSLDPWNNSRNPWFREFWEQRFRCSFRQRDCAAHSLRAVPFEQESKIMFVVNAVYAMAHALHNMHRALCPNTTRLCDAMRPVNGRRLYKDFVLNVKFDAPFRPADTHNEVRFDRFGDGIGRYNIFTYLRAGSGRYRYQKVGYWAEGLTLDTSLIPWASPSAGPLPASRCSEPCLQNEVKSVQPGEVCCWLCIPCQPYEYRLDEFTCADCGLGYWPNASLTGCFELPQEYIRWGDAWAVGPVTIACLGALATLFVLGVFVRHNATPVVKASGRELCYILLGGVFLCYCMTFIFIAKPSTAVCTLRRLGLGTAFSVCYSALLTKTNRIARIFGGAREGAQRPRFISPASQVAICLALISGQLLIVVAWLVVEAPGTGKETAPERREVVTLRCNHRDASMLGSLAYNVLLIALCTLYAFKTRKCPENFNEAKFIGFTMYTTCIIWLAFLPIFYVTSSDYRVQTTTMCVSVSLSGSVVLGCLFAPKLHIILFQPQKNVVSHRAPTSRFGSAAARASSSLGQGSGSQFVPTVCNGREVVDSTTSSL

The test has as its target Metabotropic glutamate receptor 2 (Homo sapiens, UniProt Q14416). The experiment in a line: Assessment of mGlu2 Receptor Negative Allosteric Modulator Activity: Human mGlu2 receptor stable expressing cells were prepared and incubated. Luminescence signals by mGlu2 receptor stimulation were detected with FDSS7000 (Hamamatsu Photonics). The compound solution prepared above was added to a plate where cells and luminescent substrates were added (10 μl/well). After 120 seconds of the addition, EC80 Glutamate-containing solution was added thereto (10 μl/well), and luminescence signals were measured for 300 seconds after the addition (center wavelength: 465 nm) for calculation of RLU (Integration). mGlu2 receptor negative allosteric modulator activity of a compound was calculated by (100-100×(RLU of each compound and concentration)/(RLU of DMSO group)).The present compound was assessed with the above biological test, and the compounds with mGlu2 receptor negative allosteric modulator activity were found out.
With `C[C@H]1CN(c2ccc(Cl)c(F)c2)C(=O)c2c(-c3ccc4nccn4c3)cnn21`, the pIC50 is 7.74.

For the compound `Cc1cnc2ccc(-c3cnn4c3C(=O)N(c3ccc(C(F)(F)F)cc3)C[C@@H]4C)cn12`, the pIC50 was 8.04. Regarding `CCc1cnc2ccc(-c3cnn4c3C(=O)N(c3ccc(C(F)(F)F)cc3)C[C@@H]4C)cn12`, the pIC50 is 8.11.

As for `C[C@H]1CN(c2ccc3c(c2)OC(F)(F)O3)C(=O)c2c(-c3ccc4nccn4c3)cnn21`, the pIC50 was 7.72. To `C[C@H]1CN(c2ccc(C(F)(F)F)cn2)C(=O)c2c(-c3ccc4nccn4c3)cnn21` belongs 7.80; to `Cc1cc(N2C[C@H](C)n3ncc(-c4ccc5ncc(C)n5c4)c3C2=O)ccc1F`, 7.80; to `C[C@H]1CN(c2ccc(Cl)cc2)C(=O)c2c(-c3ccc4nccn4c3)cnn21`, 7.59.

The values above are taken from ChEMBL document CHEMBL5729671, “Substituted pyrazolo[1,5-a]pyrazines as negative allosteric modulators of group II metabotropic glutamate receptor” (2023).
